Test results reported in ChEMBL document CHEMBL1129930, “Analogues of methotrexate in rheumatoid arthritis. 2. Effects of 5-deazaaminopterin, 5,10-dideazaaminopterin, and analogues on type II collagen-induced arthritis in mice” (J Med Chem, 1997).

Columns and labels:
[1] = test system: Mus musculus; assay: Incidence of disease (mouse type II collagen) was scored as the percentage of animals within each experimental group that exhibited joint or limb inflammation on day 30 at intraperitoneal dose of 12 mg/kg; format: functional
[2] = test system: Mus musculus; assay: Tested for antiinflammatory activity on mouse type II collagen arthritis as Paw swelling of all animals in each group on day 30 at intraperitoneal dose of 6 mg/kg; format: functional
[3] = test system: Mus musculus; assay: Tested for antiinflammatory activity on mouse type II collagen arthritis as Paw swelling of all animals in each group on day 37 at intraperitoneal dose of 6 mg/kg; format: functional
[4] = test system: Mus musculus; assay: Incidence of disease (mouse type II collagen) was scored as the percentage of animals within each experimental group that exhibited joint or limb inflammation on day 37 at intraperitoneal dose of 6 mg/kg; format: functional
[5] = test system: Mus musculus; assay: Incidence of disease (mouse type II collagen) was scored as the percentage of animals within each experimental group that exhibited joint or limb inflammation on day 30 at intraperitoneal dose of 6 mg/kg; format: functional
[6] = test system: Mus musculus; assay: Tested for antiinflammatory activity on mouse type II collagen arthritis as Paw swelling of all animals in each group on day 23 at intraperitoneal dose of 18 mg/kg; format: functional
[7] = test system: Mus musculus; assay: Incidence of disease (mouse type II collagen) was scored as the percentage of animals within each experimental group that exhibited joint or limb inflammation on day 37 at intraperitoneal dose of 12 mg/kg; format: functional
[8] = test system: Mus musculus; assay: Tested for antiinflammatory activity on mouse type II collagen arthritis as Paw swelling of all animals in each group on day 30 at intraperitoneal dose of 12 mg/kg; format: functional
[9] = test system: Mus musculus; assay: Tested for antiinflammatory activity on mouse type II collagen arthritis as Paw swelling of all animals in each group on day 30 at intraperitoneal dose of 18 mg/kg; format: functional
[10] = test system: Mus musculus; assay: Tested for antiinflammatory activity on mouse type II collagen arthritis as Paw swelling of all animals in each group on day 37 at intraperitoneal dose of 12 mg/kg; format: functional
[11] = test system: Mus musculus; assay: Tested for antiinflammatory activity on mouse type II collagen arthritis as Paw swelling of all animals in each group on day 44 at intraperitoneal dose of 18 mg/kg; format: functional
[12] = test system: Mus musculus; assay: Incidence of disease (mouse type II collagen) was scored as the percentage of animals within each experimental group that exhibited joint or limb inflammation on day 23 at intraperitoneal dose of 12 mg/kg; format: functional
[13] = test system: Mus musculus; assay: Incidence of disease (mouse type II collagen) was scored as the percentage of animals within each experimental group that exhibited joint or limb inflammation on day 30 at intraperitoneal dose of 18 mg/kg; format: functional
[14] = test system: Mus musculus; assay: Incidence of disease (mouse type II collagen) was scored as the percentage of animals within each experimental group that exhibited joint or limb inflammation on day 44 at intraperitoneal dose of 18 mg/kg; format: functional
[15] = test system: Mus musculus; assay: Tested for antiinflammatory activity on mouse type II collagen arthritis as Paw swelling of all animals in each group on day 37 at intraperitoneal dose of 18 mg/kg; format: functional
[16] = test system: Mus musculus; assay: Tested for antiinflammatory activity on mouse type II collagen arthritis as Paw swelling of all animals in each group on day 23 at intraperitoneal dose of 12 mg/kg; format: functional
[17] = test system: Mus musculus; assay: Tested for antiinflammatory activity on mouse type II collagen arthritis as Paw swelling of all animals in each group on day 23 at intraperitoneal dose of 6 mg/kg; format: functional
[18] = Concentration required to inhibit the growth of chang liver cells.; format: functional; details: Homo sapiens
[19] = test system: L1210; assay: Concentration required to inhibit the growth of L1210 cells.; format: functional, cell-based; details: Mus musculus
[20] = test system: Mus musculus; assay: Incidence of disease (mouse type II collagen) was scored as the percentage of animals within each experimental group that exhibited joint or limb inflammation on day 23 at intraperitoneal dose of 18 mg/kg; format: functional
[21] = test system: Mus musculus; assay: Tested for antiinflammatory activity on mouse type II collagen arthritis as Paw swelling of all animals in each group on day 44 at intraperitoneal dose of 12 mg/kg; format: functional
[22] = test system: Mus musculus; assay: Tested for antiinflammatory activity on mouse type II collagen arthritis as Paw swelling of all animals in each group on day 44 at intraperitoneal dose of 6 mg/kg; format: functional
[23] = test system: Mus musculus; assay: Incidence of disease (mouse type II collagen) was scored as the percentage of animals within each experimental group that exhibited joint or limb inflammation on day 23 at intraperitoneal dose of 6 mg/kg; format: functional
[24] = test system: Mus musculus; assay: Incidence of disease (mouse type II collagen) was scored as the percentage of animals within each experimental group that exhibited joint or limb inflammation on day 44 at intraperitoneal dose of 12 mg/kg; format: functional
[25] = test system: Mus musculus; assay: Incidence of disease (mouse type II collagen) was scored as the percentage of animals within each experimental group that exhibited joint or limb inflammation on day 37 at intraperitoneal dose of 18 mg/kg; format: functional
[26] = test system: Mus musculus; assay: Incidence of disease (mouse type II collagen) was scored as the percentage of animals within each experimental group that exhibited joint or limb inflammation on day 44 at intraperitoneal dose of 6 mg/kg; format: functional
[27] = test system: Mus musculus; assay: Incidence of disease (mouse type II collagen) was scored as the percentage of animals within each experimental group that exhibited joint or limb inflammation on day 44 at intraperitoneal dose of 0.50 mg/kg (deaths observed at 1.5 mg/kg); format: functional
[28] = test system: Mus musculus; assay: Tested for antiinflammatory activity on mouse type II collagen arthritis as Paw swelling of all animals in each group on day 37 at intraperitoneal dose of 0.50 mg/kg; format: functional; details: dose 0.5 mg/kg
[29] = test system: Mus musculus; assay: Tested for antiinflammatory activity on mouse type II collagen arthritis as Paw swelling of all animals in each group on day 44 at intraperitoneal dose of 0.25 mg/kg; format: functional
[30] = test system: Mus musculus; assay: Incidence of disease (mouse type II collagen) was scored as the percentage of animals within each experimental group that exhibited joint or limb inflammation on day 37 at intraperitoneal dose of 0.50 mg/kg (deaths observed at 1.5 mg/kg); format: functional
[31] = test system: Mus musculus; assay: Incidence of disease (mouse type II collagen) was scored as the percentage of animals within each experimental group that exhibited joint or limb inflammation on day 30 at intraperitoneal dose of 0.50 mg/kg (deaths observed at 1.5 mg/kg); format: functional
[32] = test system: Mus musculus; assay: Tested for antiinflammatory activity on mouse type II collagen arthritis as Paw swelling of all animals in each group on day 30 at intraperitoneal dose of 1 mg/kg; format: functional
[33] = test system: Mus musculus; assay: Incidence of disease (mouse type II collagen) was scored as the percentage of animals within each experimental group that exhibited joint or limb inflammation on day 44 at intraperitoneal dose of 1 mg/kg (deaths observed at 1.5 mg/kg); format: functional
[34] = test system: Mus musculus; assay: Tested for antiinflammatory activity on mouse type II collagen arthritis as Paw swelling of all animals in each group on day 44 at intraperitoneal dose of 1 mg/kg; format: functional
[35] = test system: Mus musculus; assay: Incidence of disease (mouse type II collagen) was scored as the percentage of animals within each experimental group that exhibited joint or limb inflammation on day 30 at intraperitoneal dose of 1 mg/kg (deaths observed at 1.5 mg/kg); format: functional
[36] = test system: Mus musculus; assay: Tested for antiinflammatory activity on mouse type II collagen arthritis as Paw swelling of all animals in each group on day 30 at intraperitoneal dose of 0.50 mg/kg; format: functional; details: dose 0.5 mg/kg
[37] = test system: Mus musculus; assay: Tested for antiinflammatory activity on mouse type II collagen arthritis as Paw swelling of all animals in each group on day 23 at intraperitoneal dose of 0.50 mg/kg; format: functional; details: dose 0.5 mg/kg
[38] = test system: Mus musculus; assay: Incidence of disease (mouse type II collagen) was scored as the percentage of animals within each experimental group that exhibited joint or limb inflammation on day 37 at intraperitoneal dose of 1 mg/kg (deaths observed at 1.5 mg/kg); format: functional
[39] = test system: Mus musculus; assay: Tested for antiinflammatory activity on mouse type II collagen arthritis as Paw swelling of all animals in each group on day 44 at intraperitoneal dose of 0.50 mg/kg; format: functional; details: dose 0.5 mg/kg
[40] = test system: Mus musculus; assay: Incidence of disease (mouse type II collagen) was scored as the percentage of animals within each experimental group that exhibited joint or limb inflammation on day 30 at intraperitoneal dose of 0.25 mg/kg (deaths observed at 1.5 mg/kg); format: functional
[41] = test system: Mus musculus; assay: Incidence of disease (mouse type II collagen) was scored as the percentage of animals within each experimental group that exhibited joint or limb inflammation on day 23 at intraperitoneal dose of 0.50 mg/kg (deaths observed at 1.5 mg/kg); format: functional
[42] = test system: Mus musculus; assay: Tested for antiinflammatory activity on mouse type II collagen arthritis as Paw swelling of all animals in each group on day 37 at intraperitoneal dose of 1 mg/kg; format: functional
[43] = test system: Mus musculus; assay: Incidence of disease (mouse type II collagen) was scored as the percentage of animals within each experimental group that exhibited joint or limb inflammation on day 44 at intraperitoneal dose of 0.25 mg/kg (deaths observed at 1.5 mg/kg); format: functional
[44] = test system: Mus musculus; assay: Incidence of disease (mouse type II collagen) was scored as the percentage of animals within each experimental group that exhibited joint or limb inflammation on day 37 at intraperitoneal dose of 0.25 mg/kg (deaths observed at 1.5 mg/kg); format: functional
[45] = test system: Mus musculus; assay: Tested for antiinflammatory activity on mouse type II collagen arthritis as Paw swelling of all animals in each group on day 23 at intraperitoneal dose of 0.25 mg/kg; format: functional
[46] = test system: Mus musculus; assay: Tested for antiinflammatory activity on mouse type II collagen arthritis as Paw swelling of all animals in each group on day 30 at intraperitoneal dose of 0.25 mg/kg; format: functional
[47] = test system: Mus musculus; assay: Tested for antiinflammatory activity on mouse type II collagen arthritis as Paw swelling of all animals in each group on day 37 at intraperitoneal dose of 0.25 mg/kg; format: functional
[48] = test system: Mus musculus; assay: Incidence of disease (mouse type II collagen) was scored as the percentage of animals within each experimental group that exhibited joint or limb inflammation on day 23 at intraperitoneal dose of 1 mg/kg (deaths observed at 1.5 mg/kg); format: functional
[49] = test system: Mus musculus; assay: Incidence of disease (mouse type II collagen) was scored as the percentage of animals within each experimental group that exhibited joint or limb inflammation on day 23 at intraperitoneal dose of 0.25 mg/kg (deaths observed at 1.5 mg/kg); format: functional

Nc1nc(N)c2cc(CCc3ccc(C(=O)NC(CCC(=O)O)C(=O)O)cc3)cnc2n1 (stereo unspecified)
Animals [1]: 12% | Paw swelling [2]: 2.28 mm | Paw swelling [3]: 2.26 mm | Animals [4]: 25% | Animals [5]: 25% | Paw swelling [6]: 2.15 mm | Animals [7]: 12% | Paw swelling [8]: 2.24 mm | Paw swelling [9]: 2.16 mm | Paw swelling [10]: 2.24 mm | Paw swelling [11]: 2.2 mm | Animals [12]: 0% | Animals [13]: 0% | Animals [14]: 0% | Paw swelling [15]: 2.15 mm | Paw swelling [16]: 2.12 mm | Paw swelling [17]: 2.17 mm | IC50 [18]: 37 nM | IC50 [19]: 27 nM | Animals [20]: 12% | Paw swelling [21]: 2.28 mm | Paw swelling [22]: 2.29 mm | Animals [23]: 12% | Animals [24]: 25% | Animals [25]: 0% | Animals [26]: 38%

CCc1c(CNc2ccc(C(=O)NC(CCC(=O)O)C(=O)O)cc2)cnc2nc(N)nc(N)c12 (stereo unspecified)
Animals [27]: 71% | Paw swelling [28]: 2.42 mm | Paw swelling [29]: 2.33 mm | Animals [30]: 86% | Animals [31]: 57% | Paw swelling [32]: 2.19 mm | Animals [33]: 62% | Paw swelling [34]: 2.29 mm | Animals [35]: 25% | Paw swelling [36]: 2.38 mm | Paw swelling [37]: 2.31 mm | Animals [38]: 62% | Paw swelling [39]: 2.43 mm | Animals [40]: 0% | Animals [41]: 43% | Paw swelling [42]: 2.32 mm | Animals [43]: 62% | IC50 [18]: 126 nM | Animals [44]: 50% | Paw swelling [45]: 2.25 mm | Paw swelling [46]: 2.22 mm | IC50 [19]: 1.9 nM | Paw swelling [47]: 2.34 mm | Animals [48]: 12% | Animals [49]: 38%
